Assay results as given in patent publication US7288567B2, “Inhibitors of histone deacetylase” (Methylgene Inc., priority 2000, dated 2007).
pIC50: −log10 of the molar value. Counter-ions that a name gives are not always drawn. Like-named read-outs stand apart in the source and are kept apart here.

Experiments:
[1] = tested on: histone deacetylase enzyme in nuclear extracts from H446 cells (pooled HDACs); test: Histone deacetylase inhibition, H446 nuclear extracts (pooled HDACs); format: biochemical, human; conditions: for pooled HDACs percent inhibition: percent inhibition at 20 μM (footnote); for pIC50: H446 nuclear extract, [3H]-acetylated histone substrate
Description: HDAC inhibitors were screened against histone deacetylase enzyme in nuclear extracts prepared from the human small cell lung cancer cell line H446 (ATTC HTB-171) and against a cloned recombinant human HDAC-1 enzyme expressed and purified from a Baculovirus insect cell expression system.
(§1) For deacetylase assays, 20,000 cpm of the [^3H]-metabolically labeled acetylated histone substrate (M. Yoshida et al., J. Biol. Chem. 265(28): 17174-17179 (1990)) was incubated with 30 μg of H446 nuclear extract or an equivalent amount of the cloned recombinant hHDAC-1 for 10 minutes at 37° C. The reaction was stopped by adding acetic acid (0.04 M, final concentration) and HCl (250 mM, final concentration). The mixture was extracted with ethyl acetate and the released [^3H]-acetic acid was quantified by scintillation counting. For inhibition studies, the enzyme was preincubated with compounds at 4° C. for 30 minutes prior to initiation of the enzymatic assay. IC50 values for HDAC enzyme inhibitors were determined by performing dose response curves with individual compounds and determining the concentration of inhibitor producing fifty percent of the maximal inhibition.

[2] = molecular target: T1, recombinant human HDAC-1 enzyme (rHDAC-1) (Homo sapiens, UniProt Q13547); test: Histone deacetylase inhibition, recombinant human HDAC-1; format: biochemical
T1 construct: made in house; host or cells: Baculovirus insect cell expression system
T1 sequence (Q13547 whole entry): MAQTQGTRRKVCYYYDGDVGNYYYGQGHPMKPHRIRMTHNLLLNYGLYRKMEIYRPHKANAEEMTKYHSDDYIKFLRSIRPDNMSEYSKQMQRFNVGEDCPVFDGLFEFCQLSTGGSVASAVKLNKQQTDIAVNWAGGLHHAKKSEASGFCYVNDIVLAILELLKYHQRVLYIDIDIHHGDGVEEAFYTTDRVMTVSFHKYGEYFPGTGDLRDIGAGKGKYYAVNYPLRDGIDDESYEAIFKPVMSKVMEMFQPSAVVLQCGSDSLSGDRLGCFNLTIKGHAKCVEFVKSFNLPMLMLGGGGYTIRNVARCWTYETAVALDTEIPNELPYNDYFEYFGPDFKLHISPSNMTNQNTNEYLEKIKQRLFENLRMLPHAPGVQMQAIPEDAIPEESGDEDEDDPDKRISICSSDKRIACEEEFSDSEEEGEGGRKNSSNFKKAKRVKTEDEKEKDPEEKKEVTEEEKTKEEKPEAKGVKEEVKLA
Description: as §1, with “The” for “For deacetylase assays, 20,000 cpm of the [^3H]-metabolically labeled acetylated histone substrate (M. Yoshida et al., J. Biol. Chem. 265(28): 17174-17179 (1990)) was incubated with 30 μg of H446 nuclear extract or an equivalent amount of the cloned recombinant hHDAC-1 for 10 minutes at 37° C. The”

[3] = cloned recombinant human HDAC-1, Baculovirus insect cell expression, read-out: rHDAC-1 IC50

pIC50 [2, 3]	pIC50 [1]	SMILES	also measured
4.99		Nc1ccccc1NC(=O)CCCCCCC(=O)c1ccc(-c2cccnc2)cc1 [Compound 127, N-(2-Aminophenyl)-7-[4-(3-pyridyl)benzoyl]heptanamide]	pooled HDACs percent inhibition [1]: 0%
7.46		O=C(CCCCCCC(=O)c1cnc2ccccc2c1)NO [Compound 141b, N-Hydroxy-7-[(3-quinolinyl)carbonyl]heptanamide]	pooled HDACs percent inhibition @ 1 μM [1]: 71%@ 1 μM
7.22	6.26	O=C(CCCCCCC(=O)c1ccc(C(F)(F)F)cc1)NO [Compound 52c, N-hydroxy-7-(4-trifluoromethylbenzoyl)heptanamide]	
7.48	7.00	O=C(CCCCCCC(=O)c1ccc(N2CCOCC2)cc1)NO [Compound 138i, N-Hydroxy-7-[4-(N-morpholinyl)benzoyl]heptanamide]	
8.00	6.26	O=C(CCCCCCC(=O)c1cccc2ccccc12)NO [Compound 52f, N-hydroxy-7-(1-naphthoyl)heptanamide]	
6.12		O=C(CCCCCn1nnc2ccccc2c1=O)NO [Compound 238b, N-Hydroxy-6-[3-(4-oxo-4H-benzo[d][1,2,3]triazinyl)]hexanamide]	pooled HDACs percent inhibition @ 1 μM [1]: 20%@ 1 μM
8.00	7.40	O=C(CS)CCCCCCC(=O)c1cc2ccccc2s1 [Compound 163, 1-Mercapto-2,9-dioxo-9-(2-benzo[b]thiophene)-nonane]	
5.05		Nc1ccccc1NC(=O)CCCCCCC(=O)c1ccc(-c2ccsc2)cc1 [Compound 117, N-(2-Aminophenyl)-7-[4-(3-thiophenyl)benzoyl]heptanamide]	pooled HDACs percent inhibition [1]: 0%
6.35	5.52	O=C(CCCCCCC(=O)c1ccoc1)NO [Compound 52j, N-hydroxy-7-(3-furanoyl)heptanamide]	
7.52	6.52	O=C(CCCCCCC(=O)c1cc2ccccc2o1)NO [Compound 52l, N-hydroxy-7-(2-benzofuran)carbonylheptanamide]	
		Nc1ccccc1NC(=O)CCCCCn1cnc2ccccc2c1=O [Compound 239a, N-(2-Aminophenyl)-6-[3-(4-oxo-4H-quinazolinyl)]hexanamide]	pooled HDACs percent inhibition [1]: 0%
7.05	7.40	CC(=O)SCC(=O)CCCCCCC(=O)c1cc2ccccc2n1C [Compound 165, 1-Acetylthio-2,9-dioxo-9-(2-(N-methyl)indolyl)-nonane]	
5.08		Nc1ccccc1CNC(=O)CCCCCCC(=O)c1ccc(-c2ccccc2)cc1 [Compound 75, N-(2-Aminobenzyl)-7-[(4-biphenyl)carbonyl]heptanamide]	pooled HDACs percent inhibition [1]: 0%
6.00	5.30	COc1ccc(C(OC)C(C)(C)/C=C/C=C/C(=O)NO)cc1 (stereo not drawn) [Compound 26, N-Hydroxy-6,6-dimethyl-7-methoxy-7-(4-methoxyphenyl)-2,4-heptadienamide]	
7.46	7.40	CC(=O)SCC(=O)CCCCCCC(=O)c1cc2ccccc2s1 [Compound 162, 1-Acetylthio-2,9-dioxo-9-(2-benzo[b]thiophene)-nonane]	
5.30		O=C(CCCCCCC(=O)c1ccccc1)CSCc1ccccc1 [Compound 159c, 1-Benzylthio-2,9-dioxo-9-phenyl-nonane]	pooled HDACs percent inhibition @ 5 μM ([1]; @ 5 μM): 0%@ 5 μM
7.41	6.60	O=C(CCCCCC(=O)c1cc2ccccc2[nH]1)NO [Compound 112, N-Hydroxy-6-[(2-indolyl)carbonyl]hexanamide]	
7.52	7.40	O=C(CCCCCCC(=NO)c1cc2ccccc2o1)NO (mixture of isomers) [Compound 98, N-Hydroxy-8-(E)-oximino-8-(2-benzofuryl)octanamide]	
6.15	6.46	O=C(CCCCCCC(=O)c1ccccc1)CSC(=O)c1ccccc1 [Compound 159f, 1-Benzoylthio-2,9-dioxo-9-phenyl-nonane]	
7.52	7.10	CC(CCCCC(=O)c1ccc2ccccc2c1)CC(=O)NO (stereo not drawn) [Compound 199, N-Hydroxy-3-methyl-7-(2-naphthoyl)heptanamide]	
		O=C(CCCCCCC(=O)c1ccccn1)NO [Compound 141a2, N-Hydroxy-7-[(2-pyridyl)carbonyl]heptanamide]	pooled HDACs percent inhibition @ 1 μM [1]: 12%@ 1 μM

pIC50 [2, 3]	pIC50 [1]	SMILES	also measured
		O=C(CCCCCC/C(=N/O)c1ccc(-c2ccccc2)cc1)NO [(Z)-51h, N-Hydroxy-8-(Z)-oximino-8-(4-biphenyl)octanamide]	pooled HDACs percent inhibition [1]: 75%
		O=C(CCCCCC/C(=N\O)c1ccc(-c2ccccc2)cc1)NO [(E)-51h, N-Hydroxy-8-(E)-oximino-8-(4-biphenyl)octanamide]	pooled HDACs percent inhibition [1]: 99%
	< 5.00	COC(c1ccc(N(C)C)cc1)C(C)/C=C(C)/C=C/C(=O)NO (stereo not drawn) [Compound 33, N-Hydroxy-4,6-dimethyl-7-methoxy-7-[4-(N,N-dimethylamino)phenyl]-2,4-heptadienamide]	
		Nc1ccccc1NC(=O)CCCCCN1C(=O)c2cccc3cc(O)cc(c23)C1=O [Compound 251a, N-(2-Aminophenyl)-6-[2-(5-hydroxy-1,3-dioxo-1H,3H-benzo[de]isoquinolinyl)]hexanamide]	pooled HDACs percent inhibition [1]: 0%
	< 4.70	CC(/C=C/C(=O)NO)=C\C(C)Cc1ccc(N(C)C)cc1 (stereo not drawn) [Compound 38, N-Hydroxy-4,6-dimethyl-7-[4-(N,N-dimethylamino)phenyl]-2,4-heptadienamide]	
	5.03	COC(C/C=C/C=C/C(=O)NO)c1ccccc1 (stereo not drawn) [Compound 12, N-Hydroxy-7-methoxy-7-phenyl-2,4-heptadienamide]	
	< 4.00	COc1ccc(C(OC)C(C)(C)/C=C/C=C/C(=O)Nc2ccccc2N)cc1 (stereo not drawn) [Compound 27, N-(2-Aminophenyl)-6,6-dimethyl-7-methoxy-7-(4-methoxyphenyl)-2,4-heptadienamide]	
	7.52	O=C(CCCCCC/C(=N\O)c1ccc2ccccc2c1)NO [Compound 97, N-Hydroxy-8-(E)-oximino-8-(2-naphthyl)octanamide]	
	5.96	CC(CCC(=O)NO)CC(C)C(=O)c1ccc(N(C)C)cc1 (stereo not drawn) [Compound 62, N-Hydroxy-4-Methyl-6-[4-(N,N-dimethylamino)benzoyl]heptanamide]	
	6.05	O=C(CCCCCCC(=O)c1cccs1)NO [Compound 52k, N-hydroxy-7-(2-thiophene)carbonylheptanamide]	
	7.32	O=C(CCCCCCC(=O)c1ccc(N2CCCCC2)cc1)NO [Compound 138h, N-Hydroxy-7-[4-(1-piperidinyl)benzoyl]heptanamide]	
7.30		COc1ccc(-c2ccc(C(=O)CCCCCCC(=O)NO)cn2)cc1OC [Compound 150, N-Hydroxy-7-[5-(2-(3,4-dimethoxyphenyl)pyridyl)carbonyl]heptanamide]	
7.00		O=C(CCCCCN(Cc1ccccc1)Cc1ccc2ccccc2c1)NO [Compound 220b, N-Hydroxy-6-N-(Benzyl-2-naphthylmethylamino)hexanamide]	
4.00		Nc1ccccc1NC(=O)CCCCN1C(=O)c2ccccc2C1=O [Compound 243b, N-(2-Aminophenyl)-5-(N-phthaloyl)pentanamide]	
5.52		Nc1ccccc1NC(=O)CCCCSCC(=O)c1ccc2ccccc2c1 [Compound 227a, N-(2-Aminophenyl)-5-(2-naphthoylmethylsulfanyl)pentanamide]	
6.22		Nc1ccccc1NC(=O)CCCCCCC(=O)c1ccccc1 [Compound 53a, N-(2-Aminophenyl)-7-benzoylheptanamide]	
7.70		O=C(CCCCCN(Cc1ccc2ccccc2c1)C(=O)OCc1ccccc1)NO [Compound 220a, N-Hydroxy-6-N-(Benzyloxycarbonyl-2-naphthylmethylamino)hexanamide]	
	7.30	O=C(CCCCCCC(=O)c1ccc(Br)cc1)NO [Compound 52d, N-hydroxy-7-(4-bromobenzoyl)heptanamide]	
7.40		O=C(CCCCS(=O)(=O)CC(=O)c1ccc(-c2ccccc2)cc1)NO [Compound 229b, N-Hydroxy-5-(4-biphenylcarbonylmethylsulfonyl)pentanamide]	
		O=C(CCCCCNCc1ccc2ccccc2c1)NO [Compound 223, N-Hydroxy-6-N-(2-naphthylmethylamino)hexanamide trifluoroacetate]	pIC50 [2]: 5.70
	5.60	CC(CCCCCC(=O)c1ccc2ccccc2c1)C(=O)NO (stereo not drawn) [Compound 175, N-Hydroxy-2-methyl-7-(2-naphthoyl)heptanamide]	

SMILES	pIC50 [2, 3]	pIC50 [1]	also measured
CC(C)(C)OC(=O)N(CCCCCC(=O)NO)Cc1ccc2ccccc2c1 [Compound 222, N-Hydroxy-6-N-(tert-butoxycarbonyl-2-naphthylmethylamino)hexanamide]	7.00		
CC(C)(C)OC(=O)N(CCCCCC(=O)Nc1ccccc1N)Cc1ccc2ccccc2c1 [Compound 224, N-(2-Aminophenyl)-6-N-(tert-butoxycarbonyl-2-naphthylmethylamino)-hexanamide]	5.52		
